This is an account of results in patent US10357493B2, “Metalloenzyme inhibitor compounds” (Selenity Therapeutics (Bermuda), Ltd., priority 2017, dated 2019).

Each structure is given as a SMILES string.

One assay deals with HDAC1 (Homo sapiens (Human), UniProt Q13547). Put plainly: HDAC1 enzymatic assay. In kind it is biochemical. The conditions noted are these: read-out: Human HDAC1 IC50. In short, it runs like this: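 Compound inhibition of human HDAC1 (0.5 ng enzyme, 10 uM substrate) was assessed by fluorescence after developer treatment, excitation 360 nm and emission 460 nm. Percent activity was normalized to no-compound (100%) and no-enzyme (0%) controls, plotted against concentration, and fitted to a sigmoidal dose-response curve in Graphpad Prism to obtain IC50 at half-maximal activity.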
Chain of HDAC1 (Q13547 whole entry): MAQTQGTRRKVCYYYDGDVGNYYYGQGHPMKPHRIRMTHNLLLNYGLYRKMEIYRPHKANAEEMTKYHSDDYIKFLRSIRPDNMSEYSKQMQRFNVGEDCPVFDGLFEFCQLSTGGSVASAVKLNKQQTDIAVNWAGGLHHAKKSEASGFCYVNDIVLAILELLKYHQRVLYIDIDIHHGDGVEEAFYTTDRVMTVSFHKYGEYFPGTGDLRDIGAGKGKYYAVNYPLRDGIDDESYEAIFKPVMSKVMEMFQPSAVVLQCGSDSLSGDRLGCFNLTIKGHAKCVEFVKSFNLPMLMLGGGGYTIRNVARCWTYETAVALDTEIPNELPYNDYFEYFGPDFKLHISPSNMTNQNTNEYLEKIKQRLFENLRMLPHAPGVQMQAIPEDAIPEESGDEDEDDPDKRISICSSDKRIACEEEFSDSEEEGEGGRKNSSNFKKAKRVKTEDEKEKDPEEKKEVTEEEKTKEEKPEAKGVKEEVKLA

The target in another assay is HDAC6 (Homo sapiens (Human), UniProt Q9UBN7). Nature of the assay: HDAC6 enzymatic assay. To be noted: read-out: Human HDAC6 IC50. In kind it is biochemical. In short, it runs like this:
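Following a 17 hour room-temperature incubation of 2 ng HDAC6 with 10 uM substrate and compound, 50 μl developer was added for another 20 minutes, and fluorescence (excitation 360 nm, emission 460 nm) was recorded. Activity was normalized to no-compound (100%) and no-enzyme (0%) wells, and IC50 came from sigmoidal dose-response fitting in Graphpad Prism.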

Chain of HDAC6 (Q9UBN7 whole entry): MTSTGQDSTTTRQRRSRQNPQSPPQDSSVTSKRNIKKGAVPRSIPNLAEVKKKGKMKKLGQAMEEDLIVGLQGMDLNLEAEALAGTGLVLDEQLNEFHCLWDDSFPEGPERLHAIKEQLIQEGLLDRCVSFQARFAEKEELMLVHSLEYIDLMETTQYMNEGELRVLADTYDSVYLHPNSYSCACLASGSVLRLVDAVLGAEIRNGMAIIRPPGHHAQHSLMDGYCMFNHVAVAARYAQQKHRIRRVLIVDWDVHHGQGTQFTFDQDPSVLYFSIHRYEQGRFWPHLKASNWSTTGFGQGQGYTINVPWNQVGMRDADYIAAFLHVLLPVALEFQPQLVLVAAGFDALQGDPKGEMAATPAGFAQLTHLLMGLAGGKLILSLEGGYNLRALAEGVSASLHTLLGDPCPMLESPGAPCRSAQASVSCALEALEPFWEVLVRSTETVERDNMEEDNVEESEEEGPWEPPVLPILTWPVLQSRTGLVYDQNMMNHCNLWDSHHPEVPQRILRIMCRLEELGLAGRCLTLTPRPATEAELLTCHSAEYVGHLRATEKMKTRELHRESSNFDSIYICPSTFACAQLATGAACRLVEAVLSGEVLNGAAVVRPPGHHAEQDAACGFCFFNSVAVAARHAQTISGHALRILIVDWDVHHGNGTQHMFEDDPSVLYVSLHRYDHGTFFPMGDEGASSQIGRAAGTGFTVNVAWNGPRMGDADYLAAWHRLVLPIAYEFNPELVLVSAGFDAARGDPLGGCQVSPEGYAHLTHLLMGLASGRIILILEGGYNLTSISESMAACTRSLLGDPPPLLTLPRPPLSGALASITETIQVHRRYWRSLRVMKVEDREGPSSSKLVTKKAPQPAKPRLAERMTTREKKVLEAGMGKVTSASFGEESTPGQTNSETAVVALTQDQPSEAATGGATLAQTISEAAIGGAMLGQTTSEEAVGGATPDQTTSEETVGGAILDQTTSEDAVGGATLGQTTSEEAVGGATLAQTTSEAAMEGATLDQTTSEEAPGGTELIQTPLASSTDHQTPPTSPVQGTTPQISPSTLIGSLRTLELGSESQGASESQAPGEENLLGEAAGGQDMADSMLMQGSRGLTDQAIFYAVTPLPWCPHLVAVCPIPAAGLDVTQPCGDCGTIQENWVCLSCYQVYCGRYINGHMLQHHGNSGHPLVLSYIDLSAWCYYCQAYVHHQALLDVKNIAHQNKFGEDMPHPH

As for `O=S(=O)(C1CC1)N(CC(Nc1ncc(-c2nnc(C(F)F)o2)cn1)c1ccc(F)cc1F)CC(F)(F)F` (stereo not drawn) [144(+), N-(2-((5-(5-(difluoromethyl)-1,3,4-oxadiazol-2-yl)pyrimidin-2-yl)amino)-2-(2,4-difluorophenyl)ethyl)-N-(2,2,2-trifluoroethyl)cyclopropanesulfonamide], the values for the half-inhibitory concentration (IC50) at HDAC1 and at HDAC6 were more than 30 µM and 160 nM, respectively.
Take `CN(CC(Nc1ncc(-c2nnc(C(F)F)o2)cn1)c1ccc(OC(F)F)cc1F)S(C)(=O)=O` (stereo not drawn) [145(+), N-(2-(4-(difluoromethoxy)-2-fluorophenyl)-2-((5-(5-(difluoromethyl)-1,3,4-oxadiazol-2-yl)pyrimidin-2-yl)amino)ethyl)-N-methylmethanesulfonamide]: the half-maximal inhibitory concentration (IC50) (in general, the concentration that gives 50% inhibition) was more than 30 µM at HDAC1 and 41 nM at HDAC6.
As for `CS(=O)(=O)N(CC(Nc1ncc(-c2nnc(C(F)F)o2)cn1)c1ccc(OC(F)F)cc1F)CC(F)(F)F` (stereo not drawn) [146(+), N-(2-(4-(difluoromethoxy)-2-fluorophenyl)-2-((5-(5-(difluoromethyl)-1,3,4-oxadiazol-2-yl)pyrimidin-2-yl)amino)ethyl)-N-(2,2,2-trifluoroethyl)methanesulfonamide], the 50% inhibitory concentration (IC50) at HDAC1 was more than 30 µM; at HDAC6, 140 nM.
Consider `CCS(=O)(=O)NCC(Nc1ncc(-c2nnc(C(F)F)o2)cn1)c1ccc(OC(F)F)cc1F` (stereo not drawn) [147(+), N-(2-(4-(difluoromethoxy)-2-fluorophenyl)-2-((5-(5-(difluoromethyl)-1,3,4-oxadiazol-2-yl)pyrimidin-2-yl)amino)ethyl)ethanesulfonamide], for which the IC50 is more than 30 µM on HDAC1 and 18 nM on HDAC6.
`CCS(=O)(=O)N(C)CC(Nc1ncc(-c2nnc(C(F)F)o2)cn1)c1ccc(OC(F)F)cc1F` (stereo not drawn) [148(+), N-(2-(4-(difluoromethoxy)-2-fluorophenyl)-2-((5-(5-(difluoromethyl)-1,3,4-oxadiazol-2-yl)pyrimidin-2-yl)amino)ethyl)-N-methylethanesulfonamide]: the IC50 was more than 30 µM on HDAC1 and 19 nM on HDAC6.
In the same order, the values of `CCS(=O)(=O)N(CC(Nc1ncc(-c2nnc(C(F)F)o2)cn1)c1ccc(OC(F)F)cc1F)CC(F)(F)F` (stereo not drawn) [149(+), N-(2-(4-(difluoromethoxy)-2-fluorophenyl)-2-((5-(5-(difluoromethyl)-1,3,4-oxadiazol-2-yl)pyrimidin-2-yl)amino)ethyl)-N-(2,2,2-trifluoroethyl)ethanesulfonamide] are more than 30 µM and 200 nM.
Take `CN(CC(Nc1ncc(-c2nnc(C(F)F)o2)cn1)c1ccc(OC(F)F)cc1F)S(=O)(=O)C1CC1` (stereo not drawn) [151(+), N-(2-(4-(difluoromethoxy)-2-fluorophenyl)-2-((5-(5-(difluoromethyl)-1,3,4-oxadiazol-2-yl)pyrimidin-2-yl)amino)ethyl)-N-methylcyclopropanesulfonamide]: the results for the IC50 at HDAC1 and at HDAC6 were more than 30 µM and 85 nM, respectively.
For `O=S(=O)(C1CC1)N(CC(Nc1ncc(-c2nnc(C(F)F)o2)cn1)c1ccc(OC(F)F)cc1F)CC(F)(F)F` (stereo not drawn) [152(+), N-(2-(4-(difluoromethoxy)-2-fluorophenyl)-2-((5-(5-(difluoromethyl)-1,3,4-oxadiazol-2-yl)pyrimidin-2-yl)amino)ethyl)-N-(2,2,2-trifluoroethyl)cyclopropanesulfonamide], the values for the 50% inhibitory concentration (IC50) on HDAC1 and at HDAC6 were more than 30 µM and 280 nM, respectively.
As for `CN(CC(Nc1ncc(-c2nnc(C(F)F)o2)cn1)c1ccc(OC(F)(F)F)cc1)S(C)(=O)=O` (stereo not drawn) [153(+), N-(2-((5-(5-(difluoromethyl)-1,3,4-oxadiazol-2-yl)pyrimidin-2-yl)amino)-2-(4-(trifluoromethoxy)phenyl)ethyl)-N-methylmethanesulfonamide], the 50% inhibitory concentration (IC50) on HDAC1 is more than 30 µM; at HDAC6 it was 20 nM.
Taken in the same sequence, the figures for `CS(=O)(=O)N(CC(Nc1ncc(-c2nnc(C(F)F)o2)cn1)c1ccc(OC(F)(F)F)cc1)CC(F)(F)F` (stereo not drawn) [154(+), N-(2-((5-(5-(difluoromethyl)-1,3,4-oxadiazol-2-yl)pyrimidin-2-yl)amino)-2-(4-(trifluoromethoxy)phenyl)ethyl)-N-(2,2,2-trifluoroethyl)methanesulfonamide] were more than 30 µM and 260 nM.
Turning to `CCS(=O)(=O)NCC(Nc1ncc(-c2nnc(C(F)F)o2)cn1)c1ccc(OC(F)(F)F)cc1` (stereo not drawn) [155(+), N-(2-((5-(5-(difluoromethyl)-1,3,4-oxadiazol-2-yl)pyrimidin-2-yl)amino)-2-(4-(trifluoromethoxy)phenyl)ethyl)ethanesulfonamide], the 50% inhibitory concentration (IC50) at HDAC1 is more than 30 µM; at HDAC6, 50 nM.
Taken in the same sequence, the figures for `CCS(=O)(=O)N(C)CC(Nc1ncc(-c2nnc(C(F)F)o2)cn1)c1ccc(OC(F)(F)F)cc1` (stereo not drawn) [156(+), N-(2-((5-(5-(difluoromethyl)-1,3,4-oxadiazol-2-yl)pyrimidin-2-yl)amino)-2-(4-(trifluoromethoxy)phenyl)ethyl)-N-methylethanesulfonamide] were more than 30 µM and 76 nM.
As to `CCS(=O)(=O)N(CC(Nc1ncc(-c2nnc(C(F)F)o2)cn1)c1ccc(OC(F)(F)F)cc1)CC(F)(F)F` (stereo not drawn) [157(+), N-(2-((5-(5-(difluoromethyl)-1,3,4-oxadiazol-2-yl)pyrimidin-2-yl)amino)-2-(4-(trifluoromethoxy)phenyl)ethyl)-N-(2,2,2-trifluoroethyl)ethanesulfonamide], the IC50 at HDAC1 is more than 30 µM; on HDAC6, 440 nM.
As for `O=S(=O)(NCC(Nc1ncc(-c2nnc(C(F)F)o2)cn1)c1ccc(OC(F)(F)F)cc1)C1CC1` (stereo not drawn) [158(+), N-(2-((5-(5-(difluoromethyl)-1,3,4-oxadiazol-2-yl)pyrimidin-2-yl)amino)-2-(4-(trifluoromethoxy)phenyl)ethyl)cyclopropanesulfonamide], the IC50 is more than 30 µM at HDAC1 and 51 nM at HDAC6.
For the molecule `CN(CC(Nc1ncc(-c2nnc(C(F)F)o2)cn1)c1ccc(OC(F)(F)F)cc1)S(=O)(=O)C1CC1` (stereo not drawn) [159(+), N-(2-((5-(5-(difluoromethyl)-1,3,4-oxadiazol-2-yl)pyrimidin-2-yl)amino)-2-(4-(trifluoromethoxy)phenyl)ethyl)-N-methylcyclopropanesulfonamide], the IC50 on HDAC1 is more than 30 µM; on HDAC6, 90 nM.
For the molecule `O=S(=O)(C1CC1)N(CC(Nc1ncc(-c2nnc(C(F)F)o2)cn1)c1ccc(OC(F)(F)F)cc1)CC(F)(F)F` (stereo not drawn) [160(+), N-(2-((5-(5-(difluoromethyl)-1,3,4-oxadiazol-2-yl)pyrimidin-2-yl)amino)-2-(4-(trifluoromethoxy)phenyl)ethyl)-N-(2,2,2-trifluoroethyl)cyclopropanesulfonamide], the IC50 on HDAC1 was more than 30 µM; on HDAC6, 580 nM.
On to `FC(F)(F)c1nnc(-c2cnc(NC3(c4ccccc4)CC3)nc2)o1` [Example 1, N-(1-phenylcyclopropyl)-5-(5-(trifluoromethyl)-1,3,4-oxadiazol-2-yl) pyrimidin-2-amine], for which the figures for the half-inhibitory concentration (IC50) on HDAC1 and at HDAC6 were more than 30 µM and 210 nM, respectively.
In the same order, the values of `CC(Nc1ncc(-c2nnc(C(F)(F)F)o2)cn1)c1ccccc1` (centres unmarked) [Example 2, N-(1-phenylethyl)-5-(5-(trifluoromethyl)-1,3,4-oxadiazol-2-yl)pyrimidin-2-amine] are more than 30 µM and 390 nM.
Turning to `Cc1cccc(CNc2ncc(-c3nnc(C(F)(F)F)o3)cn2)n1` [Example 3, N-((6-methylpyridin-2-yl)methyl)-5-(5-(trifluoromethyl)-1,3,4-oxadiazol-2-yl) pyrimidin-2-amine], the figures for the IC50 on HDAC1 and on HDAC6 were more than 30 µM and 230 nM, respectively.
In the case of `CC(Nc1ncc(-c2nnc(C(F)F)o2)cn1)c1ccccc1` (centres unmarked) [Example 6, 5-(5-(difluoromethyl)-1,3,4-oxadiazol-2-yl)-N-(1-phenylethyl)pyrimidin-2-amine], the IC50 is more than 30 µM at HDAC1 and 57 nM on HDAC6.
Regarding `FC(F)c1nnc(-c2cnc(NC(c3ccccc3)c3ccccc3)nc2)o1` [Example 7, N-benzhydryl-5-(5-(difluoromethyl)-1,3,4-oxadiazol-2-yl)pyrimidin-2-amine], the figures for the half-maximal inhibitory concentration (IC50) at HDAC1 and on HDAC6 were more than 30 µM and 1700 nM, respectively.
Taken in the same sequence, the figures for `CN(c1ncc(-c2nnc(C(F)F)o2)cn1)C1(c2ccc(F)cc2)CC1` [Example 8, 5-(5-(difluoromethyl)-1,3,4-oxadiazol-2-yl)-N-(1-(4-fluorophenyl)cyclopropyl)-N-methylpyrimidin-2-amine] were more than 30 µM and 9000 nM.
Take `Fc1ccc(C2(Nc3ncc(-c4nnc(C(F)F)o4)cn3)CC2)c(F)c1` [Example 10, 5-(5-(difluoromethyl)-1,3,4-oxadiazol-2-yl)-N-(1-(2,4-difluorophenyl)cyclopropyl)pyrimidin-2-amine]: the results for the IC50 at HDAC1 and at HDAC6 were more than 100 µM and 9 nM, respectively.
Taken in the same sequence, the figures for `FC(F)c1nnc(-c2cnc(OC3(c4ccccc4)CC3)nc2)o1` [Example 12, 2-(difluoromethyl)-5-(2-(1-phenylcyclopropoxy)pyrimidin-5-yl)-1,3,4-oxadiazole] were more than 30 µM and 210 nM.
Regarding `Fc1ccc(-c2ccccc2C2(Nc3ncc(-c4nnc(C(F)F)o4)cn3)CC2)cc1` [Example 14, 5-(5-(difluoromethyl)-1,3,4-oxadiazol-2-yl)-N-(1-(4′-fluoro-[1,1′-biphenyl]-2-yl)cyclopropyl)pyrimidin-2-amine], the results for the IC50 at HDAC1 and on HDAC6 were more than 30 µM and more than 30000 nM, respectively.
